Test results: patent publication US20100009935A1, “RESISTANCE-REPELLENT […] INHIBITORS” (priority 2002, published 2010)
Read-outs that look alike come from different tables or passages of the source.

Assays:
Assay type in all cases: cell-based
[1] = test system: HIV-1 clinical isolate 7; assay: PI sensitivity of PI-resistant clinical isolate 7 in PHA-PBMC, p24; details: for IC50: Human immunodeficiency virus 1, isolate 7: L10I, L24I, L33F, E35D, H36I, H37S, N46L, I54V, R57K, I62V, L63P, A71V, G73S, V82A, PHA-PBMC, p24; for FOLD CHANGE of IC50: isolate 7 compared to HIV-1wt (HIV-1ERS104pre)
[2] = test system: highly cross-resistant HIV-1 strains derived from AIDS patients; details: for antiviral activity against patient isolates with multiple mutations compared with wild type HIV strains (in words): multidrug resistant patient isolates
[3] = test system: HIV-1 clinical isolate 6; assay: PI sensitivity of PI-resistant clinical isolate 6 in PHA-PBMC, p24; details: for IC50: Human immunodeficiency virus 1, isolate 6: L10I, K14R, B41K, H46L, I54V, L63P, A71V, V82A, L90M, I93L, PHA-PBMC, p24; for FOLD CHANGE of IC50: isolate 6 compared to HIV-1wt (HIV-1ERS104pre)
[4] = test system: HIV-1 clinical isolate 8; assay: PI sensitivity of PI-resistant clinical isolate 8 in PHA-PBMC, p24; details: for IC50: Human immunodeficiency virus 1, isolate 8: L10R, H37D, N46I, I62V, L63P, A71V, G73S, V77I, V82T, L90M, I93L, PHA-PBMC, p24; for FOLD CHANGE of IC50: isolate 8 compared to HIV-1wt (HIV-1ERS104pre)
[5] = test system: HIV-1ERS104pre (wild-type clinical strain); assay: PI sensitivity of wild-type clinical isolate in PHA-PBMC, p24; details: for IC50: Human immunodeficiency virus 1, read-out: IC50 μM; for FOLD CHANGE of IC50: wild type HIV-1ERS104pre, reference (=1)
[6] = test system: HIV-1APV-P30; assay: PI sensitivity of APV-selected HIV-1APV-P30 in MT-2 cells, MTT assay; details: for FOLD CHANGE of IC50: HIV-1APV-P30 compared to HIV-1NL4-3 (wild type); for IC50: Human immunodeficiency virus 1, MT2, 168 h
[7] = test system: HIV-1LAI; assay: microbe, parasite or virus in culture; details: day 7, read-out: MEAN IC50 (μM) ± SDs
Method: (§1) The sensitivities of HIV-1LAI, HIV-1Ba-L, HIV-2EHO and the primary HIV-1 isolates against various drugs were determined as previously described with minor modifications (Shiraska et al., Proc. Natl. Acad. Sci. USA, 92, 2398-2402 (1995)).

[8] = test system: HIV-1Ba-L; assay: microbe, parasite or virus in culture; details: Human immunodeficiency virus 1, 168 h, PBNC (PHA-PBMC), p24 production, day 7, read-out: MEAN IC50 (μM) ± SDs
Method: as §1

[9] = test system: HIV-1 clinical isolate 3; assay: PI sensitivity of PI-resistant clinical isolate 3 in PHA-PBMC, p24; details: for IC50: Human immunodeficiency virus 1, isolate 3: L10I, I15V, E35D, N37E, K45R, I54V, L63P, A71V, V82I, L90N, I93L, C95F, PHA-PBMC, p24; for FOLD CHANGE of IC50: isolate 3 compared to HIV-1wt (HIV-1ERS104pre)
[10] = test system: HIV-1UIC-P62; assay: PI sensitivity of compound 1-selected HIV-1UIC-P62 in MT-2 cells, MTT assay; details: Human immunodeficiency virus 1, MT2, 168 h, HIV-1UIC-P62 (L10F, A28S, M46I, I50V, A71V, N88D), day 7
[11] = test system: HIV-1 clinical isolate 2; assay: PI sensitivity of PI-resistant clinical isolate 2 in PHA-PBMC, p24; details: for IC50: Human immunodeficiency virus 1, isolate 2: L10I, I15V, K20R, N36I, H46L, I54V, K55R, I62V, L63P, K70D, V82A, L89N, PHA-PBMC, p24; for FOLD CHANGE of IC50: isolate 2 compared to HIV-1wt (HIV-1ERS104pre)
[12] = test system: HIV-2EHO; assay: Drug sensitivity of HIV-2EHO in MT-2 cells, MTT assay; details: Human immunodeficiency virus 2, MT2, 168 h, HT-2 (footnote: MT-2 cells), day 7, read-out: MEAN IC50 (μM) ± SDs
Method: as §1

[13] = test system: HIV-1 clinical isolate 1; assay: PI sensitivity of PI-resistant clinical isolate 1 in PHA-PBMC, p24; details: for IC50: Human immunodeficiency virus 1, isolate 1: L10I, K14R, L33I, N36I, H46I, F53L, K55R, I62V, L63P, A71V, G73S, V82A, L90M, I93L, PHA-PBMC, p24; for FOLD CHANGE of IC50: isolate 1 compared to HIV-1wt (HIV-1ERS104pre)
[14] = test system: HIV-1 clinical isolate 4; assay: PI sensitivity of PI-resistant clinical isolate 4 in PHA-PBMC, p24; details: for IC50: Human immunodeficiency virus 1, isolate 4: L10I, V11I, T12E, I15V, L19I, B41K, H46L, L63P, A71T, V82A, L90M, PHA-PBMC, p24; for FOLD CHANGE of IC50: isolate 4 compared to HIV-1wt (HIV-1ERS104pre)
[15] = test system: HIV-1 clinical isolate 5; assay: PI sensitivity of PI-resistant clinical isolate 5 in PHA-PBMC, p24; details: for IC50: Human immunodeficiency virus 1, isolate 5: L10I, K43T, N46L, I54L, L63P, A71T, V82A, L90N, D92K, PHA-PBMC, p24; for FOLD CHANGE of IC50: isolate 5 compared to HIV-1wt (HIV-1ERS104pre)
[16] = test system: HIV-1NL4-3; details: for FOLD CHANGE of IC50: HIV-1NL4-3, reference (=1); for IC50: Human immunodeficiency virus 1, MT2, 168 h, HIV-1NL4-3 (wild type), MT-2 cells, MTT assay, day 7
[17] = Human immunodeficiency virus 1, 168 h, PBMC (PHA-PBMC), p24 production
[18] = Human immunodeficiency virus 1, MT2, 168 h, HT-2 (footnote: MT-2 cells), MTT assay

| Compound | IC50 [1] [nM] | FOLD CHANGE of IC50 [1] | antiviral activity against patient isolates with multiple mutations compared with wild type HIV strains (in words) [2] | IC50 [3] [nM] | FOLD CHANGE of IC50 [3] | IC50 [4] [nM] | FOLD CHANGE of IC50 [4] | IC50 [5] [µM] | FOLD CHANGE of IC50 [5] | FOLD CHANGE of IC50 [6] | IC50 [6] [nM] | IC50 [7, 17] [µM] | IC50 [7, 18] [µM] | IC50 [8] [µM] | IC50 [9] [nM] | FOLD CHANGE of IC50 [9] | IC50 [10] [nM] | IC50 [11] [nM] | FOLD CHANGE of IC50 [11] | IC50 [12] [µM] | other results |
| --- | --- | --- | --- | --- | --- | --- | --- | --- | --- | --- | --- | --- | --- | --- | --- | --- | --- | --- | --- | --- | --- |
| CC(C)c1nc(CN(C)C(=O)N[C@H](C(=O)N[C@@H](Cc2ccccc2)C[C@H](O)[C@H](Cc2ccccc2)NC(=O)OCc2cncs2)C(C)C)cs1 [RTV, Ritonavir] | > 1000 | (>23) fold | dramatically less potent | > 1000 | (>23) fold | > 1000 | (>23) fold | 0.044 | (1) fold | (>26) fold | > 1000 | 0.04 ± 0.008 | 0.041 ± 0.005 | 0.038 ± 0.02 | > 1000 | (>23) fold | 55 | > 1000 | (>23) fold | 0.35 ± 0.025 | IC50 [13]: > 1000 nM; FOLD CHANGE of IC50 [13]: (>23) fold; IC50 [14]: > 1000 nM; FOLD CHANGE of IC50 [14]: (>23) fold; IC50 [15]: > 1000 nM; FOLD CHANGE of IC50 [15]: (>23) fold; FOLD CHANGE of IC50 [16]: (1) fold; IC50 [16]: 38 nM |
| CC(C)(C)NC(=O)[C@@H]1C[C@@H]2CCCC[C@@H]2CN1C[C@@H](O)[C@H](Cc1ccccc1)NC(=O)[C@H](CC(N)=O)NC(=O)c1ccc2ccccc2n1 [SQV, Saquinavir] | 120 | (12) fold | dramatically less potent | 190 | (19) fold | 42 | (4) fold | 0.03 | (1) fold | (2) fold | 35 | 0.011 ± 0.005 | 0.023 ± 0.002 | 0.014 ± 0.01 | 36 | (4) fold | 10 | 37 | (4) fold | 0.004 ± 0.0005 | level of resistance (fold), range over the isolates ([2]; compared to wild-type clinical strain HIV-1ERS104pre): 3-31 fold; IC50 [13]: 270 nM; FOLD CHANGE of IC50 [13]: (27) fold; IC50 [14]: 33 nM; FOLD CHANGE of IC50 [14]: (3) fold; IC50 [15]: 310 nM; FOLD CHANGE of IC50 [15]: (31) fold; FOLD CHANGE of IC50 [16]: (1) fold; IC50 [16]: 19 nM |
